For data set [1], the target named is T1, Solute carrier organic anion transporter family member 1A1 (Rattus norvegicus, UniProt P46720).
T1 sequence (P46720 whole entry): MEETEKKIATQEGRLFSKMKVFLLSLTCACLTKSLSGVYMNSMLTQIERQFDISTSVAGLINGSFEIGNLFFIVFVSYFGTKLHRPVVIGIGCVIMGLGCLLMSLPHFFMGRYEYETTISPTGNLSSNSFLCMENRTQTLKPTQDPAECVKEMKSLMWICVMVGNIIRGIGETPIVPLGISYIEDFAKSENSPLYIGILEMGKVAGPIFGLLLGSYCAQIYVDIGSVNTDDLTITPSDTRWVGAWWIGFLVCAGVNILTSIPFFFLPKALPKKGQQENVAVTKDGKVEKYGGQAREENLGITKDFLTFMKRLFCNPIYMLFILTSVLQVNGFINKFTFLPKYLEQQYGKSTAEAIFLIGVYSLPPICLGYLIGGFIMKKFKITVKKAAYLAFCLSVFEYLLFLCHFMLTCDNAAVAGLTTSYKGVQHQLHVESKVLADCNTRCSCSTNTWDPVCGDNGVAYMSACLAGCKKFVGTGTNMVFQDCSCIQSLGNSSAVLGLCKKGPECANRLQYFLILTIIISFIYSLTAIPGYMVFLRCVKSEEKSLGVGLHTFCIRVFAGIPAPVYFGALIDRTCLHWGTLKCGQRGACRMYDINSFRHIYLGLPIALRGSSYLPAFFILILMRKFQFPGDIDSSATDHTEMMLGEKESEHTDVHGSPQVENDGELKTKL
The experiment in a line: TP_TRANSPORTER: uptake in Xenopus laevis oocytes. Format: functional, cell-based, Oocyte. To be noted: Xenopus laevis oocytes expressing the transporter.

The target of data set [2] is T1, Solute carrier organic anion transporter family member 1A1. The experiment in a line: TP_TRANSPORTER: inhibition of Ochratoxin A uptake (OTA: 1 uM, CRC-220: 100uM) in Xenopus laevis oocytes. Format: functional, cell-based. To be noted: oocyte.
For data set [3] the target is unchanged. Description: TP_TRANSPORTER: inhibition of Ochratoxin A uptake (OTA: 1 uM, BSP: 100uM) in Xenopus laevis oocytes. Format: functional, cell-based. To be noted: oocyte.
Data set [4] shares this target. The experiment in a line: TP_TRANSPORTER: inhibition of Ochratoxin A uptake (OTA: 1 uM, GC: 100uM) in Xenopus laevis oocytes. It is filed as functional, cell-based. To be noted: oocyte.
The target is the same in data set [5]. The experiment in a line: TP_TRANSPORTER: inhibition of Ochratoxin A uptake (OTA: 1 uM, E1S: 100uM) in Xenopus laevis oocytes. Format: functional, cell-based. To be noted: oocyte.

`C[C@@H]1Cc2c(Cl)cc(C(=O)N[C@@H](Cc3ccccc3)C(=O)O)c(O)c2C(=O)O1` [3R14S-OCHRATOXIN A]: the Michaelis-Menten constant (Km) (commonly the substrate concentration at which the rate is half of its maximum) in data set [1] was 16.6 µM.

Regarding `COc1cc(C)c(S(=O)(=O)N[C@@H](CC(=O)O)C(=O)N[C@H](Cc2ccc(C(=N)N)cc2)C(=O)N2CCCCC2)c(C)c1C`, the Activity result in data set [2] was “inhibitor [+]”. On to `O=C1OC(c2ccc(O)c(S(=O)(=O)[O-])c2)(c2ccc(O)c(S(=O)(=O)[O-])c2)c2c(Br)c(Br)c(Br)c(Br)c21.[Na+].[Na+]` [SULFOBROMOPHTHALEIN SODIUM], for which, in data set [3], the Activity result is “inhibitor [+]”. For `C[C@H](CCC(=O)NCC(=O)O)[C@H]1CC[C@H]2[C@@H]3[C@H](O)C[C@@H]4C[C@H](O)CC[C@]4(C)[C@H]3C[C@H](O)[C@]12C` [GLYCOCHOLIC ACID], the Activity result in data set [4] was “inhibitor [+]”. Regarding `C[C@]12CC[C@@H]3c4ccc(OS(=O)(=O)O)cc4CC[C@H]3[C@@H]1CCC2=O` [ESTRONE SULFURIC ACID], the Activity entry in data set [5] is “inhibitor [+]”.

Source of the values: ChEMBL document CHEMBL2073811, “Uptake of the mycotoxin ochratoxin A in liver cells occurs via the cloned organic anion transporting polypeptide” (J Pharmacol Exp Ther, 1996).
